Laboratory results reported in patent publication EP3046573B1, “AMYLIN ANALOGUES” (Zealand Pharma A/S, priority 2013, dated 2015).
pEC50: −log10 of the molar value. Like-named read-outs stand apart in the source and are kept apart here. Numbered stars: 1 amine (or outer) side, 2 acyl side, 3 side chain; on linkers, the order of the positions; unused ones are H or OH. Bridge positions count the residues as written; N and C are the ends. Square brackets hold non-standard residues; d marks the D form. Peptide text beside a SMILES is read from it. * marks the point of attachment. Pro(4R-Bn) = O=C(O)[C@@H]1C[C@@H](Cc2ccccc2)CN1; C20 diacid = O=C(O)CCCCCCCCCCCCCCCCCCC(=O)*; γGlu = O=C(O)[C@H](CCC(=O)[*:2])N[*:1]; NMeI = CC[C@H](C)[C@H](NC)C(=O)O; Sar = CNCC(=O)O

How the values were obtained:
[1] = target: T1, human calcitonin receptor (hCTR2) (Homo sapiens, UniProt P30988); experiment: hCTR2 assay: induction of cAMP (AlphaScreen cAMP Assay kit) in COS7 cells expressing hCTR2; format: cell-based
T1 construct: expressed in transfected cells
T1 sequence (P30988 25-474): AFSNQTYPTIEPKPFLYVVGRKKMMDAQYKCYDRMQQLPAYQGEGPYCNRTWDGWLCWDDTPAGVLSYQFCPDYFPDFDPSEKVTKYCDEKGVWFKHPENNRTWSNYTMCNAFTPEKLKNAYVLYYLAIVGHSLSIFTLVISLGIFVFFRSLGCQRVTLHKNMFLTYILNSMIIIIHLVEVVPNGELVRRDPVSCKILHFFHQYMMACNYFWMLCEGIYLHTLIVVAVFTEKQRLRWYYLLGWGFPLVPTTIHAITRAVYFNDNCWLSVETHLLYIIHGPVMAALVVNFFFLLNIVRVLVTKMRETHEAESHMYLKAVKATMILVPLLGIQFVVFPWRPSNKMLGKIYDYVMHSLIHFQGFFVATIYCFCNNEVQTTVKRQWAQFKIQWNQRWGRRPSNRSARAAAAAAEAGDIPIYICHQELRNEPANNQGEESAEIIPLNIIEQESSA
Procedure, shortened: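 cAMP induction was measured by AlphaScreen in COS7 cells stably expressing hCTR2 without RAMPs, after 15 min at 37° C with increasing peptide concentrations, 100 µM IBMX and 0.1% casein (Tyrode, pH 7.4). A 4-parameter logistic fit gave EC50 and % efficacy versus pramlintide.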

[2] = target: T2, human amylin receptor 3 (hAMYR3) consisting of hCTR2 co-expressed with human Receptor Activity Modifying Protein 3 (hRAMP3) (Homo sapiens, UniProt O60896+P30988); experiment: hAMYR3 assay: induction of cAMP (AlphaScreen cAMP Assay kit) in COS7 cells expressing hAMYR3; format: cell-based
T2 construct: expressed in transfected cells
T2 sequence (P30988 25-474): T1 sequence (P30988 25-474)
T2 sequence (O60896 24-148 partner): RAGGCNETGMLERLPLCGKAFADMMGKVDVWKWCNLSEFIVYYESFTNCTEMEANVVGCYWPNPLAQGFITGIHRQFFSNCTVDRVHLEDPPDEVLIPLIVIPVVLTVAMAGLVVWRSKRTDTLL
Procedure, shortened: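 cAMP accumulation read by AlphaScreen in lysates of RAMP-naive COS7 cells stably transfected with hCTR2 plus hRAMP3. Cells exposed to peptide dilutions for 15 min, 37° C, with 100 µM IBMX; 4PL fitting gave EC50 and efficacy relative to pramlintide.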

[3] = Solubility assessment (turbidity absorbance at 325 nm); format: physicochemical; conditions: stock 2 mg/ml diluted 1:1, ambient temperature (typically 25°C), n=1; for Solubility, Acetate buffer pH 4: 100 mM acetate buffer pH 4.0; for Solubility, Acetate buffer pH 5: 100 mM acetate buffer pH 5.0; for Solubility, Histidine buffer pH 6: 100 mM histidine buffer pH 6.0; for Solubility, Histidine buffer pH 7: 100 mM histidine buffer pH 7.0; for Solubility, Phosphate buffer pH 6: 100 mM phosphate buffer pH 6.0; for Solubility, Phosphate buffer pH 7: 100 mM phosphate buffer pH 7.0; for Solubility, Phosphate buffer pH 7.5: 100 mM phosphate buffer pH7.5
Procedure, shortened: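 Read-out: turbidity as absorbance at 325 nm (280 nm also read), single samples, ambient temperature of typically 25°C. Samples were a 1:1 mix of 2 mg/ml stock (water, pH 2.5) with 100 mM acetate, histidine or phosphate buffers spanning pH 4.0–7.5. Cut-off: A325 ≤ 0.02 indicates ≥ 1 mg/ml.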

[4] = cAMP induction in COS7 cells expressing hCTR2, average of a minimum of 3 determinations, read-out: hCTR2 EC50
[5] = cAMP induction in COS7 cells expressing hAMYR3, average of a minimum of 3 determinations, read-out: hAMY R3 EC50

| pEC50 [1, 4] | pEC50 [2, 5] | Structure (SMILES) | pEC50 [1] | pEC50 [2] | Solubility, Acetate buffer pH 4 [3] | Solubility, Acetate buffer pH 5 [3] | Solubility, Histidine buffer pH 6 [3] | Solubility, Histidine buffer pH 7 [3] | Solubility, Phosphate buffer pH 6 [3] | Solubility, Phosphate buffer pH 7 [3] | Solubility, Phosphate buffer pH 7.5 [3] |
| --- | --- | --- | --- | --- | --- | --- | --- | --- | --- | --- | --- |
|  |  | CC[C@H](C)[C@@H](C(=O)N[C@@H](CC(C)C)C(=O)N[C@@H](CO)C(=O)N[C@@H](CO)C(=O)N[C@H](C(=O)N[C@@H](CC(N)=O)C(=O)N[C@H](C(=O)NCC(=O)N[C@@H](CO)C(=O)N[C@@H](CC(N)=O)C(=O)N[C@H](C(=O)N1C[C@H](Cc2ccccc2)C[C@H]1C(N)=O)[C@@H](C)O)C(C)C)[C@@H](C)O)N(C)C(=O)[C@H](C)NC(=O)CN(C)C(=O)[C@H](Cc1ccccc1)NC(=O)[C@H](CC(N)=O)NC(=O)[C@H](CC(N)=O)NC(=O)[C@H](CO)NC(=O)[C@H](CO)NC(=O)[C@H](CCCNC(=N)N)NC(=O)[C@H](Cc1c[nH]cn1)NC(=O)[C@H](CC(C)C)NC(=O)[C@H](Cc1ccccc1)NC(=O)[C@H](CCC(=O)O)NC(=O)[C@H](C)NC(=O)[C@H](CC(C)C)NC(=O)[C@H](CCCNC(=N)N)NC(=O)[C@H](CCC(N)=O)NC(=O)[C@@H](NC(=O)[C@H](C)NC(=O)[C@@H]1CSSC[C@H](NC(=O)[C@H](CCCNC(=N)N)NC(=O)CC[C@H](NC(=O)CCCCCCCCCCCCCCCCCCC(=O)O)C(=O)O)C(=O)N[C@@H](CC(N)=O)C(=O)N[C@@H]([C@@H](C)O)C(=O)N[C@@H](C)C(=O)N[C@@H]([C@@H](C)O)C(=O)N1)[C@@H](C)O [Compound 114, [19CD]-isoGlu-RC()NTATC()ATQRLAEFLHRSSNNF-Gly(Me)-A-Ile(Me)-LSSTNVGSNT-Bep-NH2] ({C20 diacid-γGlu}-RCNTATCATQRLAEFLHRSSNNF[Sar]A[NMeI]LSSTNVGSNT[Pro(4R-Bn)]-NH2; disulfide 2-7) | 9.68 | 9.74 | SS (SS indicates solubility ≥ 1mg/ml) | SS (SS indicates solubility ≥ 1mg/ml) | SS (SS indicates solubility ≥ 1mg/ml) | II (II indicates solubility ≤ 1 mg/ml) | II (II indicates solubility ≤ 1 mg/ml) | II (II indicates solubility ≤ 1 mg/ml) | II (II indicates solubility ≤ 1 mg/ml) |
|  |  | CC[C@H](C)[C@@H](C(=O)N[C@@H](CC(C)C)C(=O)N[C@@H](CO)C(=O)N[C@@H](CO)C(=O)N[C@H](C(=O)N[C@@H](CC(N)=O)C(=O)N[C@H](C(=O)NCC(=O)N[C@@H](CO)C(=O)N[C@@H](CC(N)=O)C(=O)N[C@H](C(=O)N[C@@H](Cc1ccccc1)C(N)=O)[C@@H](C)O)C(C)C)[C@@H](C)O)N(C)C(=O)[C@H](C)NC(=O)CN(C)C(=O)[C@H](Cc1ccccc1)NC(=O)[C@H](CC(N)=O)NC(=O)[C@H](CC(N)=O)NC(=O)[C@H](CO)NC(=O)[C@H](CO)NC(=O)[C@H](CCCNC(=N)N)NC(=O)[C@H](Cc1c[nH]cn1)NC(=O)[C@H](CC(C)C)NC(=O)[C@H](Cc1ccccc1)NC(=O)[C@H](CCC(=O)O)NC(=O)[C@H](C)NC(=O)[C@H](CC(C)C)NC(=O)[C@H](CCCNC(=N)N)NC(=O)[C@H](CCC(N)=O)NC(=O)[C@@H](NC(=O)[C@H](C)NC(=O)[C@@H]1CSSC[C@H](NC(=O)[C@H](CCCNC(=N)N)NC(=O)CC[C@H](NC(=O)CCCCCCCCCCCCCCCCCCC(=O)O)C(=O)O)C(=O)N[C@@H](CC(N)=O)C(=O)N[C@@H]([C@@H](C)O)C(=O)N[C@@H](C)C(=O)N[C@@H]([C@@H](C)O)C(=O)N1)[C@@H](C)O [Compound 115, [19CD]-isoGlu-RC()NTATC()ATQRLAEFLHRSSNNF-Gly(Me)-A-Ile(Me)-LSSTNVGSNTF-NH2] ({C20 diacid-γGlu}-RCNTATCATQRLAEFLHRSSNNF[Sar]A[NMeI]LSSTNVGSNTF-NH2; disulfide 2-7) | 9.33 | 9.43 | SS (SS indicates solubility ≥ 1mg/ml) | SS (SS indicates solubility ≥ 1mg/ml) | SS (SS indicates solubility ≥ 1mg/ml) | II (II indicates solubility ≤ 1 mg/ml) | II (II indicates solubility ≤ 1 mg/ml) | SS (SS indicates solubility ≥ 1mg/ml) | II (II indicates solubility ≤ 1 mg/ml) |
| 9.77 | 9.52 | CC[C@H](C)[C@@H](C(=O)N[C@@H](CC(C)C)C(=O)N[C@@H](CO)C(=O)N[C@@H](CO)C(=O)N[C@H](C(=O)N[C@@H](CCC(=O)O)C(=O)N[C@H](C(=O)NCC(=O)N[C@@H](CO)C(=O)N[C@@H](CCC(=O)O)C(=O)N[C@H](C(=O)N1CCC[C@H]1C(N)=O)[C@@H](C)O)C(C)C)[C@@H](C)O)N(C)C(=O)[C@H](C)NC(=O)CN(C)C(=O)[C@H](Cc1ccccc1)NC(=O)[C@H](CO)NC(=O)[C@H](CO)NC(=O)[C@H](CO)NC(=O)[C@H](CO)NC(=O)[C@H](CCCNC(=N)N)NC(=O)[C@H](Cc1c[nH]cn1)NC(=O)[C@H](CC(C)C)NC(=O)[C@H](Cc1ccccc1)NC(=O)[C@H](CCC(=O)O)NC(=O)[C@H](C)NC(=O)[C@H](CC(C)C)NC(=O)[C@H](CCCNC(=N)N)NC(=O)[C@H](CCC(=O)O)NC(=O)[C@@H](NC(=O)[C@H](C)NC(=O)[C@@H]1CSSC[C@H](NC(=O)[C@H](CCCNC(=N)N)NC(=O)CC[C@H](NC(=O)CCCCCCCCCCCCCCCCCCC(=O)O)C(=O)O)C(=O)N[C@@H](CC(N)=O)C(=O)N[C@@H]([C@@H](C)O)C(=O)N[C@@H](C)C(=O)N[C@@H]([C@@H](C)O)C(=O)N1)[C@@H](C)O [Compound 119, [19CD]-isoGlu-RC()NTATC()ATERLAEFLHRSSSSF-Gly(Me)-A-Ile(Me)-LSSTEVGSETP-NH2] ({C20 diacid-γGlu}-RCNTATCATERLAEFLHRSSSSF[Sar]A[NMeI]LSSTEVGSETP-NH2; disulfide 2-7) |  |  | SS (SS indicates solubility ≥ 1mg/ml) | SS (SS indicates solubility ≥ 1mg/ml) | SS (SS indicates solubility ≥ 1mg/ml) | SS (SS indicates solubility ≥ 1mg/ml) | SS (SS indicates solubility ≥ 1mg/ml) | SS (SS indicates solubility ≥ 1mg/ml) | SS (SS indicates solubility ≥ 1mg/ml) |
| 9.82 | 9.52 | CC[C@H](C)[C@@H](C(=O)N[C@@H](CC(C)C)C(=O)N[C@@H](CO)C(=O)N[C@@H](CO)C(=O)N[C@H](C(=O)N[C@@H](CCC(=O)O)C(=O)N[C@H](C(=O)NCC(=O)N[C@@H](CO)C(=O)N[C@@H](CCC(=O)O)C(=O)N[C@H](C(=O)N1CCC[C@H]1C(N)=O)[C@@H](C)O)C(C)C)[C@@H](C)O)N(C)C(=O)[C@H](C)NC(=O)CN(C)C(=O)[C@H](Cc1ccccc1)NC(=O)[C@H](CO)NC(=O)[C@H](CO)NC(=O)[C@H](CO)NC(=O)[C@H](CO)NC(=O)[C@H](CCCNC(=N)N)NC(=O)[C@H](Cc1c[nH]cn1)NC(=O)[C@H](CC(C)C)NC(=O)[C@H](Cc1ccccc1)NC(=O)[C@H](CCC(=O)O)NC(=O)[C@H](C)NC(=O)[C@H](CC(C)C)NC(=O)[C@H](CCCNC(=N)N)NC(=O)[C@H](CC(C)C)NC(=O)[C@@H](NC(=O)[C@H](C)NC(=O)[C@@H]1CSSC[C@H](NC(=O)[C@H](CCCNC(=N)N)NC(=O)CC[C@H](NC(=O)CCCCCCCCCCCCCCCCCCC(=O)O)C(=O)O)C(=O)N[C@@H](CC(N)=O)C(=O)N[C@@H]([C@@H](C)O)C(=O)N[C@@H](C)C(=O)N[C@@H]([C@@H](C)O)C(=O)N1)[C@@H](C)O [Compound 121, [19CD]-isoGlu-RC()NTATC()ATLRLAEFLHRSSSSF-Gly(Me)-A-Ile(Me)-LSSTEVGSETP-NH2] ({C20 diacid-γGlu}-RCNTATCATLRLAEFLHRSSSSF[Sar]A[NMeI]LSSTEVGSETP-NH2; disulfide 2-7) |  |  | SS (SS indicates solubility ≥ 1mg/ml) | SS (SS indicates solubility ≥ 1mg/ml) | II (II indicates solubility ≤ 1 mg/ml) | SS (SS indicates solubility ≥ 1mg/ml) | SS (SS indicates solubility ≥ 1mg/ml) | II (II indicates solubility ≤ 1 mg/ml) | SS (SS indicates solubility ≥ 1mg/ml) |
